Data from ChEMBL document CHEMBL1130839, “Synthesis and pharmacological activities of 13-dehydro derivatives of primary prostaglandins” (Bioorg Med Chem Lett, 1998).

Assays:
Assay type in all cases: functional
[1] = organism: Cavia porcellus; test: Compound was tested for contraction of guinea-pig ileum; settings: read-out: ED50 (the source's name)
[2] = organism: Homo sapiens; test: Compound was tested for inhibition of ADP-induced human platelet aggregation
[3] = organism: Cavia porcellus; test: Compound was tested for relaxation of guinea-pig trachea precontracted in histamine
[4] = organism: Cavia porcellus; test: Compound was tested for relaxation of guinea-pig trachea precontracted with histamine
[5] = organism: Cavia porcellus; test: Compound was tested for […] PGE2-induced relaxation of guinea-pig trachea precontracted with carbachol
[6] = organism: Rattus norvegicus; test: Compound was tested for contraction of rat isolated uterine; settings: read-out: ED50 (the source's name)

EC50 [1] | IC50 [2] | IC50 [3] | IC50 [4] | IC50 [5] | EC50 [6] | Compound
0.26 µM | 2.6 µM | 5.4 µM | – | – | – | CC/C=C\C[C@H](O)C#C[C@H]1[C@H](O)CC(=O)[C@@H]1C/C=C\CCCC(=O)O
0.00023 µM | 3 µM | – | 8.9 µM | – | – | CCCCC[C@H](O)C#C[C@H]1[C@H](O)CC(=O)[C@@H]1CCCCCCC(=O)O
0.00018 µM | 0.0034 µM | – | – | 0.0026 µM | – | CCCCC[C@H](O)C#C[C@H]1[C@H](O)CC(=O)[C@@H]1C/C=C\CCCC(=O)O
0.02 µM | – | – | – | – | 1 µM | CCCCC[C@H](O)C#C[C@@H]1[C@@H](CCCCCCC(=O)O)[C@@H](O)C[C@H]1O
